# Results published in ChEMBL document CHEMBL1159189, “Pyrazolo[3,4-d]pyrimidines; adenosine receptor selectivity” (Bioorg Med Chem Lett, 1995).
# Key:
# Adenosine receptor A2a [1] = target: T1, Adenosine receptor A2a (Rattus norvegicus, UniProt P30543); experiment: Inhibitory activity against Adenosine A2a receptor binding site
# Adenosine receptor A1 = target: T2, Adenosine receptor A1 (Rattus norvegicus, UniProt P25099); experiment: Binding affinity for Adenosine A1 receptor by inhibition of [3H]PIA binding to whole rat brain membranes; format: cell membranes, Membrane
# T2 sequence (P25099 whole entry): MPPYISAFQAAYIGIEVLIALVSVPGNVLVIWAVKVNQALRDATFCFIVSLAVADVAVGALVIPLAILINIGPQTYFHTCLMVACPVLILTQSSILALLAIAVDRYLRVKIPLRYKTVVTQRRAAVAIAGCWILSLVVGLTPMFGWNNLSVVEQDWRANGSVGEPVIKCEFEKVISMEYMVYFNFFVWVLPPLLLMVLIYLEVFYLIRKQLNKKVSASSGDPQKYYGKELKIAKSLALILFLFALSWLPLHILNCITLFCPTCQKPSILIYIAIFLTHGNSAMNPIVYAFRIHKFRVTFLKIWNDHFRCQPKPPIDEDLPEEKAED
# Adenosine receptor A2a [2] = target: T1, Adenosine receptor A2a; experiment: Binding affinity towards Adenosine A2a receptor by inhibition of [3H]CGS-21680 binding to rat brain striatum membranes; format: cell membranes, Membrane
# [3] = target: Adenosine receptors; A1 & A2a (Rattus norvegicus) (UniProt P25099+P30543); experiment: Ratio of binding affinities for adenosine receptor A2a and adenosine receptor A1; format: protein assay
# Adenosine receptors; A1 & A2a (Rattus norvegicus), sequence (P30543 whole entry, looked up, one chain of several): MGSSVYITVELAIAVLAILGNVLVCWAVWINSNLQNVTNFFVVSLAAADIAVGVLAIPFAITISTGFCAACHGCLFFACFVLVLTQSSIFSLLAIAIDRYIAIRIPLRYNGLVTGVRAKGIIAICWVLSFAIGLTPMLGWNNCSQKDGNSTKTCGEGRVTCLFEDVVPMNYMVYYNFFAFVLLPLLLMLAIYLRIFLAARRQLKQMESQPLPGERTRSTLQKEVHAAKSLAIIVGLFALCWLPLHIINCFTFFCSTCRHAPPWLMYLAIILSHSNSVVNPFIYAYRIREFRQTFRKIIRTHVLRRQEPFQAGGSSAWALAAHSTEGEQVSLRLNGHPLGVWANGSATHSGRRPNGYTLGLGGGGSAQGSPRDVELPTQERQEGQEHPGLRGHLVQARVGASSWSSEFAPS
# T1 sequence (P30543 whole entry): as the sequence (P30543 whole entry, looked up, one chain of several) above
SMILES,IC50 (Adenosine receptor A2a [1]) [µM],Ki (Adenosine receptor A1) [nM],Ki (Adenosine receptor A2a [2]) [nM],Ratio [3]
CCCCn1c(=O)[nH]c2c(cnn2-c2cccc(Cl)c2)c1=N,19.2,,,
CC(Sc1nc(SC(C)C(N)=O)c2cnn(-c3ccccc3)c2n1)C(N)=O (stereo not given),,229,146,
CCNC(=O)CSc1nc(N)c2cnn(-c3ccccc3)c2n1,,12.1,131,10.8
NC(=O)CCSc1nc(N)c2cnn(-c3ccccc3)c2n1,,428,101,0.24
CCNC(=O)CCSc1nc(N)c2cnn(-c3ccccc3)c2n1,,551,1280,2.3
NC(=O)CSc1nc(N)c2cnn(-c3ccccc3)c2n1,,28.5,44.9,1.6
